# Source: patent US12012398B2, “Bicyclic compounds as androgen receptor modulators” (NIDO BIOSCIENCES, INC., priority 2021, dated 2024)
# Read-outs that look alike come from different tables or passages of the source.
# Tested on: LNCaP cells expressing ARR2PB-FireflyLuc and CMV-RenillaLuc
# Assay: LNCaP ARR2PB-FireflyLuc reporter assay, antagonist mode;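 note: IC50 bins in nM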
# Assay type: cell-based
# Conditions: +0.5 nM DHT, 48 h at 37° C., read-out: LNCap Antagonist Archive: IC50
# Description: LNCaP cells expressing ARR2PB-FireflyLuc and CMV-RenillaLuc were treated with indicated concentrations of test compounds, enzalutamide (negative control), or DHT (positive control)+/−0.5 nM DHT for 48 h at 37° C. Fluorescent signals were read with the ImageXpress Micro Confocal System. Remaining activity (antagonist mode) was calculated as % Remaining Activity=100×[(ReadSample−LCave)/(HCave−LCave)] where HC is cells treated with 0.5 nM DHT only and LC is cells treated with 10 uM enzalutamide+0.5 nM DHT. Activation (agonist mode) was calculated as % Activation=100×[(ReadSample−LCave)/(HCave−LCave)] where HO is cells treated with 1 uM DHT and LC is cells treated with DMSO. Dose response curves and IC50 values were calculated using non-linear regression analysis in XLfit.
# The designation “A” indicates an IC50 value of >10 μM, “B” indicates an IC50 value between 1 μM and 10 μM; “C” indicates an IC50 value between 100 nM and 1 μM; and “D” indicates an IC50 value of less than 100 nM.
SMILES,"IC50 (Homo sapiens, LNCaP, 48 h)",IC50
"CN(C(=O)c1cc2ccnc(Cl)c2[nH]1)C12CC(F)(C1)C2 [Example 98, 7-chloro-N-[3-fluorobicyclo[1.1.1]pentan-1-yl]-N-methyl-1H-pyrrolo[2,3-c]pyridine-2-carboxamide]",0.1 to 1 µM,–
"O=C(NC12CC(F)(C1)C2)c1cc2ccnc(Cl)c2[nH]1 [Example 99, 7-chloro-N-[3-fluorobicyclo[1.1.1]pentan-1-yl]-1H-pyrrolo[2,3-c]pyridine-2-carboxamide]",1 to 10 µM,–
"O=C(NC1CC(F)(F)C1)c1cc2ccnc(Cl)c2[nH]1 [Example 100, 7-chloro-N-(3,3-difluorocyclobutyl)-1H-pyrrolo[2,3-c]pyridine-2-carboxamide]",0.1 to 1 µM,–
"CN(C(=O)c1cc2ccnc(Cl)c2[nH]1)C1CC(F)(F)C1 [Example 101, 7-chloro-N-(3,3-difluorocyclobutyl)-N-methyl-1H-pyrrolo[2,3-c]pyridine-2-carboxamide]",1 to 10 µM,–
"Cc1c(C(=O)NC23CC(C2)C3)[nH]c2c(Cl)cccc12 [Example 102, N-[bicyclo[1.1.1]pentan-1-yl]-7-chloro-3-methyl-1H-indole-2-carboxamide]",0.1 to 1 µM,–
"O=C(NC12CC(C1)C2)c1cc2ccncc2[nH]1 [Example 103, N-[bicyclo[1.1.1]pentan-1-yl]-1H-pyrrolo[2,3-c]pyridine-2-carboxamide]",> 10 µM,–
"Cc1c(C(=O)N(C)C23CC(C2)C3)[nH]c2c(Cl)cccc12 [Example 104, N-[bicyclo[1.1.1]pentan-1-yl]-7-chloro-N,3-dimethyl-1H-indole-2-carboxamide]",> 10 µM,–
"O=C(NC12CC(C1)C2)c1[nH]c2c(Cl)cccc2c1C1CC1 [Example 105, N-[bicyclo[1.1.1]pentan-1-yl]-7-chloro-3-cyclopropyl-1H-indole-2-carboxamide]",1 to 10 µM,–
"O=C(NC12CC(C1)C2)c1[nH]c2c(Cl)cccc2c1Cl [Example 106, N-[bicyclo[1.1.1]pentan-1-yl]-3,7-dichloro-1H-indole-2-carboxamide]",1 to 10 µM,–
"Cn1ccc(-c2c(C(=O)NC34CC(C3)C4)[nH]c3c(Cl)cccc23)n1 [Example 107, N-[bicyclo[1.1.1]pentan-1-yl]-7-chloro-3-(1-methylpyrazol-3-yl)-1H-indole-2-carboxamide]",> 10 µM,–
"O=C(NC12CC(C1)C2)c1[nH]c2c(Cl)cccc2c1-c1ccccc1 [Example 108, N-[bicyclo[1.1.1]pentan-1-yl]-7-chloro-3-phenyl-1H-indole-2-carboxamide]",1 to 10 µM,–
"Cc1c(C(=O)NC23CC(F)(C2)C3)[nH]c2c(Cl)cccc12 [Example 109, 7-chloro-N-[3-fluorobicyclo[1.1.1]pentan-1-yl]-3-methyl-1H-indole-2-carboxamide]",0.1 to 1 µM,–
"Cn1c(C(=O)NC23CC(F)(C2)C3)cc2ccnc(Cl)c21 [Example 110, 7-chloro-N-[3-fluorobicyclo[1.1.1]pentan-1-yl]-1-methylpyrrolo[2,3-c]pyridine-2-carboxamide]",0.1 to 1 µM,–
"CCn1c(C(=O)NC23CC(F)(C2)C3)cc2ccnc(Cl)c21 [Example 111, 7-chloro-1-ethyl-N-[3-fluorobicyclo[1.1.1]pentan-1-yl]pyrrolo[2,3-c]pyridine-2-carboxamide]",< 0.1 µM,–
"O=C(NC12CC(F)(C1)C2)c1cc2ccnc(Cl)c2n1CC1CC1 [Example 113, 7-chloro-1-(cyclopropylmethyl)-N-{3-fluorobicyclo[1.1.1]pentan-1-yl}pyrrolo[2,3-c]pyridine-2-carboxamide]",0.1 to 1 µM,–
"Cn1c(C(=O)NC23CC(F)(C2)C3)cc2cccc(Cl)c21 [Example 114, 7-chloro-N-{3-fluorobicyclo[1.1.1]pentan-1-yl}-1-methylindole-2-carboxamide]",< 0.1 µM,–
"O=C(NC12CC(O)(C1)C2)c1cc2cccc(Cl)c2[nH]1 [Example 115, 7-chloro-N-[3-hydroxybicyclo[1.1.1]pentan-1-yl]-1H-indole-2-carboxamide]",> 10 µM,–
"O=C(NC12CC(O)(C1)C2)c1cc2ccnc(Cl)c2[nH]1 [Example 116, 7-chloro-N-{3-hydroxybicyclo[1.1.1]pentan-1-yl}-1H-pyrrolo[2,3-c]pyridine-2-carboxamide]",> 10 µM,–
"CCN(C(=O)c1cc2ccnc(Cl)c2[nH]1)C12CC(F)(C1)C2 [Example 117, 7-chloro-N-ethyl-N-{3-fluorobicyclo[1.1.1]pentan-1-yl}-1H-pyrrolo[2,3-c]pyridine-2-carboxamide]",0.1 to 1 µM,–
"COc1nccc2cc(C(=O)NC34CC(F)(C3)C4)n(C)c12 [Example 118, N-{3-fluorobicyclo[1.1.1]pentan-1-yl}-7-methoxy-1-methylpyrrolo[2,3-c]pyridine-2-carboxamide]",1 to 10 µM,–
"Cn1c(C(=O)NC23CC(F)(C2)C3)cc2ccnc(OC3CC3)c21 [Example 119, 7-cyclopropoxy-N-{3-fluorobicyclo[1.1.1]pentan-1-yl}-1-methylpyrrolo[2,3-c]pyridine-2-carboxamide]",> 10 µM,–
"Cn1c(C(=O)NC23CC(F)(C2)C3)cc2ccnc(C3CC3)c21 [Example 120, 7-cyclopropyl-N-{3-fluorobicyclo[1.1.1]pentan-1-yl}-1-methylpyrrolo[2,3-c]pyridine-2-carboxamide]",1 to 10 µM,–
"O=C(NC12CC(F)(C1)C2)c1cc2ccnc(OC3CC3)c2[nH]1 [Example 122, 7-cyclopropoxy-N-{3-fluorobicyclo[1.1.1]pentan-1-yl}-1H-pyrrolo[2,3-c]pyridine-2-carboxamide]",> 10 µM,–
"CNc1nccc2cc(C(=O)NC34CC(F)(C3)C4)n(C)c12 [Example 124, N-{3-fluorobicyclo[1.1.1]pentan-1-yl}-1-methyl-7-(methylamino)pyrrolo[2,3-c]pyridine-2-carboxamide]",> 10 µM,–
"CN(C)c1nccc2cc(C(=O)NC34CC(F)(C3)C4)n(C)c12 [Example 125, 7-(dimethylamino)-N-{3-fluorobicyclo[1.1.1]pentan-1-yl}-1-methylpyrrolo[2,3-c]pyridine-2-carboxamide]",1 to 10 µM,–
"CN(C(=O)c1cc2ccnc(OC3CC3)c2[nH]1)C12CC(F)(C1)C2 [Example 126, 7-cyclopropoxy-N-{3-fluorobicyclo[1.1.1]pentan-1-yl}-N-methyl-1H-pyrrolo[2,3-c]pyridine-2-carboxamide]",> 10 µM,–
"CN(C(=O)c1cc2ccnc(Cl)c2n1C)C12CC(F)(C1)C2 [Example 128, 7-chloro-N-{3-fluorobicyclo[1.1.1]pentan-1-yl}-N,1-dimethylpyrrolo[2,3-c]pyridine-2-carboxamide]",< 0.1 µM,0.1 to 1 µM
"Cc1c(C(=O)NC23CC(F)(C2)C3)n(C)c2c(Cl)nccc12 [Example 129, 7-chloro-N-{3-fluorobicyclo[1.1.1]pentan-1-yl}-1,3-dimethylpyrrolo[2,3-c]pyridine-2-carboxamide]",> 10 µM,–
"Cc1nccc2cc(C(=O)NC34CC(F)(C3)C4)n(C)c12 [Example 130, N-{3-fluorobicyclo[1.1.1]pentan-1-yl}-1,7-dimethylpyrrolo[2,3-c]pyridine-2-carboxamide]",1 to 10 µM,–
"Cn1c(C(=O)NC23CC(F)(C2)C3)cc2ccnc(C#N)c21 [Example 131, 7-cyano-N-{3-fluorobicyclo[1.1.1]pentan-1-yl}-1-methylpyrrolo[2,3-c]pyridine-2-carboxamide]",0.1 to 1 µM,–
